Reference: patent US8088819B2, “Derivatives of substituted 3-phenyl-1-(phenylthienyl)propan-1-ones and of 3-phenyl-1-(phenylfuranyl) propan-1-ones, preparation and use” (priority 2006, dated 2012)

How the values were obtained:
[1] = system: db/db mouse; test: Plasma triglycerides and insulinemia in the db/db mouse; format: in vivo; conditions: 50 mpk oral, 28 days
Method: The effect of the compounds according to the invention is evaluated in vivo in the db/db mouse by measuring the plasma triglycerides and insulinemia after 28 days of treatment with compound 2 by the oral route. These levels are compared with those obtained with control animals (not treated with the compound according to the invention). The measured difference provides evidence of the antilipemic effect and effect on insulin resistance of the compound according to the invention.
Female db/db mice were kept under a cycle of light and darkness of 12/12 hours at a constant temperature of 20±3° C. After acclimation for one week, the mice were weighed and put in groups of 8 animals selected so that the distribution of their body weight and of their plasma lipid levels, determined for the first time before the experiment, are uniform. The test compounds were suspended in carboxymethylcellulose (Sigma C4888) and administered by intragastric force feeding, at a rate of once per day for 28 days at the chosen dose. The animals had free access to water and to food (standard diet). The food intake and the weight gain are recorded throughout the experiment. […]
The plasma concentrations of triglycerides were measured by enzyme assays (bioMérieux-Lyon-France) following the supplier's recommendations. […]

[2] = system: target genes of the PPARs; test: Expression of PPARδ target genes in skeletal muscle of the C57Bl6 mouse (compounds 4 and 7), quantitative RT-PCR; format: in vivo; conditions: C57Bl6 mice; 50 mpk; 14 days
From the text: The PPARδ agonistic properties of the molecules according to the invention previously measured in vitro should be reflected at the level of the skeletal muscle in overexpression of the target genes directly under the control of the PPARδ receptor: the genes that were investigated in this experiment are the genes coding for PDK4 (enzyme of carbohydrate metabolism), CPT1b (enzyme of lipid metabolism), UCP2 and UCP3 (mitochondrial transporters involved in thermoregulation).
Female C57Bl6 mice were kept under a cycle of light and darkness of 12/12 hours at a constant temperature of 20±3° C. After acclimation for one week, the mice were weighed and put into groups of 6 animals selected so that the distribution of their body weight, of their plasma lipid levels and of total cholesterol determined for the first time before the experiment, is uniform. The test compounds were suspended in carboxymethylcellulose (Sigma C4888) and administered by intragastric force feeding, at a rate of once per day for 14 days at the chosen dose. The animals had free access to water and to food (standard diet). At the end of the experiment, the animals were anesthetized after fasting for 4 hours, a blood sample was taken using anticoagulant (EDTA), then the mice were weighed and euthanased. The plasma was separated by centrifugation at 3000 rev/min for 20 minutes, and the samples were stored at +4° C.
Samples of skeletal muscle tissue were taken and frozen immediately in liquid nitrogen and then stored at −80° C. for later analyses.
The total RNA was extracted from fragments of gastrocnemius skeletal muscle using the RNeasy® Fibrous Tissue kit (Qiagen) following the manufacturer's instructions.
1 μg of total RNA (quantified based on the spectrophotometer reading) was then reverse-transcribed to complementary DNA by reaction for 1 hour at 37° C. in a total volume of 30 μl containing buffer 1× (Invitrogen), 1.5 mM of DTT, 0.18 mM of dNTPs (Promega), 200 ng of pdN6 (Amersham), 30 U of RNase inhibitor (Promega) and 1 μl of MMLV-RT (Invitrogen).
The quantitative PCR experiments were carried out using the MyiQ Single-Color Real-Time PCR Detection System (Biorad, Marnes-la-Coquette, France) and were performed using the iQ SYBR Green Supermix kit following the supplier's recommendations, in 96-well plates, on 5 μl of diluted reverse transcription reaction mixture with a hybridization temperature of 60° C. Primer pairs specific to the genes under investigation were used:
The amount of fluorescence emitted is directly proportional to the amount of complementary DNA present at the start of the reaction and amplified during PCR. For each target investigated, a range is produced by successive dilutions of a pool constituted of a few microliters of various reverse transcription reaction mixtures. The relative expression levels of each target are thus determined using the efficacy curves obtained with the points in the range.
The levels of expression of the genes of interest were then normalized relative to the level of expression of the reference gene 18S (whose specific primers are: […]
The induction factor, i.e. the ratio of the relative signal (induced by the compound according to the invention) to the mean of the relative values of the control group, was then calculated for each sample. The higher this factor, the greater the gene expression activating character of the compound. The final result is represented as the mean of the induction values in each experimental group.

SMILES | insulinemia (plasma levels of insulin) [1] | plasma triglyceride level [1] | expression of the gene coding for CPT1b in skeletal muscle [2] | expression of the gene coding for PDK4 in skeletal muscle [2] | expression of the gene coding for UCP2 in skeletal muscle [2] | expression of the gene coding for UCP3 in skeletal muscle [2]
CC(C)(Oc1ccc(CCC(=O)c2ccc(-c3ccc(C(F)(F)F)cc3)s2)c(Cl)c1Cl)C(=O)O [Compound 2, 2-(2,3-dichloro-4-(3-oxo-3-(5-(4-(trifluoromethyl)phenyl)thien-2-yl)propyl)phenoxy)-2-methylpropanoic acid] | lowered significantly | lowered significantly | – | – | – | –
CC(C)(Oc1ccc(CCC(O)c2ccc(-c3ccc(C(F)(F)F)cc3)s2)c(Cl)c1Cl)C(=O)O (stereo not shown) [Compound 4, 2-(2,3-dichloro-4-(3-hydroxy-3-(5-(4-(trifluoromethyl)phenyl)thien-2-yl)propyl)phenoxy)-2-methylpropanoic acid] | – | – | significant increase | significant increase | significant increase | significant increase
CC(C)(Oc1ccc(CCC(OCc2ccccc2)c2ccc(-c3ccc(C(F)(F)F)cc3)s2)c(Cl)c1Cl)C(=O)O (stereo not shown) [Compound 7, 2-(4-(3-(benzyloxy)-3-(5-(4-(trifluoromethyl)phenyl)thien-2-yl)propyl)-2,3-dichlorophenoxy)-2-methylpropanoic acid] | – | – | significant increase | significant increase | significant increase | significant increase
